# Results from patent US7795378B2, “Peptide compositions for treatment of sexual dysfunction” (Palatin Technologies, Inc., priority 2002, dated 2010).
# Where a SMILES comes first, the peptide text is derived from it. [ ]: non-standard residue; d: D form. The star is where a group is joined. dPhe(4-Cl) = N[C@H](Cc1ccc(Cl)cc1)C(=O)O; Ahp = NCCCCCCC(=O)O; Bn = c1ccc(C*)cc1
# Tests used:
# [1] = molecular target: T1, hMC4-R (Homo sapiens, UniProt P32245); assay: Competitive inhibition binding assay with 125I-NDP-MSH, MC4 receptor; settings: 10 μM peptide, 0 assigned when raw inhibition between −10% and 10%, read-out: % Inhibition at 10 μM concentration at MC4-Receptor
# T1 construct: expressed in transfected cells
# T1 sequence (P32245 whole entry): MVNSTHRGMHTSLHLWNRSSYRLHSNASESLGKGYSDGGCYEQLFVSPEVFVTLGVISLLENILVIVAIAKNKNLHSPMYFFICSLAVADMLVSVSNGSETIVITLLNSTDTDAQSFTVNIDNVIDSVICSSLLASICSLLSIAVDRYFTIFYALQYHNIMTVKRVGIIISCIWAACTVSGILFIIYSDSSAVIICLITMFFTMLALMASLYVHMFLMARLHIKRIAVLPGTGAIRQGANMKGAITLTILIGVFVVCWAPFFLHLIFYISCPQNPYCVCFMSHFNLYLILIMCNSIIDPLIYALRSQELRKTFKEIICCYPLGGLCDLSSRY
# Procedure: (§1) Competitive inhibition binding assay was conducted using membranes prepared from hMC3-R, hMC4-R, hMC5-R, and B-16 mouse melanoma cells (containing MC1-R) using 0.4 nM ^125I-NDP-MSH (0.2 nM for MCL-R) (New England Nuclear, Boston, Mass., USA) in 50 mM HEPES buffer containing 1 mM MgCl2, 2 mM CaCl2, and 5 mM KCl, at pH 7.2. The assay tube also contained a chosen concentration of the peptides of this invention, for determining inhibition of the binding of ^125I-NDP-MSH to its receptor. Non-specific binding was measured by complete inhibition of binding of ^125I-NDP-MSH in the assay in the presence of 1 μM α-MSH. Incubation was for 90 minutes at 37° C., after which the assay mixture was filtered and the membranes washed three times with ice cold buffer. The filter was dried and counted in a gamma counter for remaining radioactivity bound to the membranes. 100% specific binding was defined as the difference in radioactivity (cpm) bound to cell membranes in the absence and presence of 1 μM α-MSH. The cpm obtained in the presence of peptides of this invention were normalized with respect to 100% specific binding to determine the percent inhibition of ^125I-NDP-MSH binding. Each assay was conducted in triplicate.
# (§2) The binding of the peptides of Examples 1 to 13, inclusive, to melanocortin receptors was evaluated, with results shown on Table 1. Relative binding was determined by competitive inhibition using an α-MSH analog, iodinated NDP-MSH. B16-Fl mouse melanoma cells were used as the source of MC1 receptors and HEK 293 cells, transfected with human melanocortin receptor sequences, were used as the source of MC3, MC4 and MC5 receptors. A standard competitive binding assay protocol as described above was followed, using ^125I-NDP-MSH as the radioligand. A “0” percent inhibition was assigned when the raw percent inhibition, as an average of at least triplicate measures, was between −10% and 10%; in the majority of instances, the raw percent inhibition was between −10% and 0% inhibition.
# [2] = tested on: male Sprague-Dawley rats; assay: Induction of penile erections in male rats; format: in vivo, rat
# Procedure: The ability of the peptides of Examples 1 to 13 to induce penile erection in male rats was evaluated. Male Sprague-Dawley rats weighing 200-250 g were kept on a 12 hour on/off light cycle with food and water ad libitum. All behavioral studies were performed between 10 a.m. and 5 p.m. Groups of 4-8 rats were treated with peptides at a variety of doses via intravenous administration. Immediately after administration, rats were placed into individual polystyrene cages (27 cm long, 16 cm wide, and 25 cm high) for behavioral observation.
# The efficacious dose of NH2—(CH2)6CO-Ser(Bzl)-D-Phe(4-Cl)-Arg, made as in Example 1 above, to induce penile erection in Sprague Dawley rats by intravenous dosing and oral administration was determined. […] NH2—(CH2)6CO-Ser(Bzl)-D-Phe(4-Cl)-Arg was efficacious at doses as low as 0.1 to 1 μg/kg of body weight when administered by oral means, and at doses lower than 0.001 μg/kg of body weight when administered by intravenous means.
# The efficacious dose of NH2—(CH2)6—CO-Ser(Bzl)-D-Phe(4-Cl)-Arg(NO2), made as in Example 5 above, to induce penile erection in Sprague Dawley rats by intravenous dosing was determined. […] It was determined that NH2—(CH2)6—CO-Ser(Bzl)-D-Phe(4-Cl)-Arg(NO2) was efficacious at doses as low as 0.001 to 10 μg/kg of body weight when administered by intravenous means, with efficacy determined by induction of penile erection in 100% of animals. The optimal dose response was at 1 μg/kg of body weight. FIG. 1 depicts the dose response profile, with the error bars depicting standard deviation where n (the number of animals) is between 8 and 19, depending on the dose point.
# The efficacious dose of NH2—(CH2)6—CO-Ser(Bzl)-D-Phe(4-Cl)-Arg(NO2), made as in Example 5 above, to induce penile erection in Sprague Dawley rats by intranasal administration using a micropipetor to deliver 25 μL of solution into one nostril was determined. […] It was determined that NH2—(CH2)6—CO-Ser(Bzl)-D-Phe(4-Cl)-Arg(NO2) was efficacious at doses between 0.01 μg/kg and 100 μg/kg of body weight when administered by intranasal means. The peak dose response was at an intranasal dose of 0.1 μg/kg of body weight.
# [3] = molecular target: T2, hMC3-R (Homo sapiens, UniProt P41968); assay: Competitive inhibition binding assay with 125I-NDP-MSH, MC3 receptor; settings: 10 μM peptide, 0 assigned when raw inhibition between −10% and 10%, read-out: % Inhibition at 10 μM concentration at MC3-Receptor
# T2 construct: expressed in transfected cells; host or cells: HEK 293 cells (membranes)
# T2 sequence (P41968 whole entry): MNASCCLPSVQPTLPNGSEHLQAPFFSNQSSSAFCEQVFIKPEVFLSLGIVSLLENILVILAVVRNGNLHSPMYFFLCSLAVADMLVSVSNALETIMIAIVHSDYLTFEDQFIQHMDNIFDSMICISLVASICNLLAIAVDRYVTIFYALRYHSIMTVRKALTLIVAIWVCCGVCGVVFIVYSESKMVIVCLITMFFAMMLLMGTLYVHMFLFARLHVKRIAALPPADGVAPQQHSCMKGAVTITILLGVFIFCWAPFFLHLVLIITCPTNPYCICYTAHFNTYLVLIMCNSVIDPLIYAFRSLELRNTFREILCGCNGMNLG
# Procedure: as §1, §2
# [4] = tested on: male rats; assay: Induced penile erections after pre-administration of MC4-R antagonist SHU9119; format: in vivo, rat; settings: SHU9119 approximately 5 minutes before peptide
# Source text: It is known that MC4-R antagonists inhibit the erectile activity of MC4-R agonists in a dose dependent manner. Such antagonists include SHU9119, a nonselective melanocortin antagonist of the formula Ac-Nle-cyc/o(-Asp-His-D-Nal(2′)-Arg-Trp-Lys)-NH2 (Hruby V. J., Lu D., Sharma S. D., et al. Cyclic lactam alpha-melanotropin analogues of Ac-Nle^4-cyclo[Asp^5, D-Phe^7, Lys^10]-NH2 with bulky aromatic amino acids at position 7 show high antagonist potency and selectivity at specific melanocortin receptors. J Med Chem 38:3454-3461 (1995)). Antagonists such as SHU9119 are known to inhibit MT-II and other known melanocortin receptor-specific agonists that induce erectile activity. SHU9119 was administered to male rats approximately 5 minutes before administration of either NH2—(CH2)6CO-Ser(Bzl)-D-Phe(4-Cl)-Arg or NH2—(CH2)6CO-Ser(Bzl)-D-Phe(4-Cl)-Arg-Trp-NH2, with Ac-Nle-cyc/o(Asp-His-D-Phe-Arg-Trp-Lys)-OH, a known MC4-R agonist, as a positive control.
# [5] = molecular target: T3, MC1-R (B16-F1 mouse melanoma cells) (Mus musculus, UniProt Q01727); assay: Competitive inhibition binding assay with 125I-NDP-MSH, MC1 receptor; settings: 10 μM peptide, 0 assigned when raw inhibition between −10% and 10%, read-out: % Inhibition at 10 μM concentration at MC1-Receptor
# T3 construct: B-16 mouse melanoma cells (containing MC1-R); endogenous in cells; host or cells: B16-F1 mouse melanoma cells (membranes)
# T3 sequence (Q01727 whole entry): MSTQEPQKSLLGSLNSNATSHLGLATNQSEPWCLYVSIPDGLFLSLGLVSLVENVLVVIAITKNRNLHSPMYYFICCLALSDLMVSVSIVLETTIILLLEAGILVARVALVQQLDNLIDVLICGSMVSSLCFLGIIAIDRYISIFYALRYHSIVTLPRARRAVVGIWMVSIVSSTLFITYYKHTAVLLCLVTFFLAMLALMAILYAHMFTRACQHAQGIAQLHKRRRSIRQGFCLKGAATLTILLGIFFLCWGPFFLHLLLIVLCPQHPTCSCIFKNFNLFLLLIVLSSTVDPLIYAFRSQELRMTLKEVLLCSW
# Procedure: as §1, §2
# [6] = molecular target: T4, hMC5-R (Homo sapiens, UniProt P33032); assay: Competitive inhibition binding assay with 125I-NDP-MSH, MC5 receptor; settings: 10 μM peptide, 0 assigned when raw inhibition between −10% and 10%, read-out: % Inhibition at 10 μM concentration at MC5-Receptor
# T4 construct: expressed in transfected cells; host or cells: HEK 293 cells (membranes)
# T4 sequence (P33032 whole entry): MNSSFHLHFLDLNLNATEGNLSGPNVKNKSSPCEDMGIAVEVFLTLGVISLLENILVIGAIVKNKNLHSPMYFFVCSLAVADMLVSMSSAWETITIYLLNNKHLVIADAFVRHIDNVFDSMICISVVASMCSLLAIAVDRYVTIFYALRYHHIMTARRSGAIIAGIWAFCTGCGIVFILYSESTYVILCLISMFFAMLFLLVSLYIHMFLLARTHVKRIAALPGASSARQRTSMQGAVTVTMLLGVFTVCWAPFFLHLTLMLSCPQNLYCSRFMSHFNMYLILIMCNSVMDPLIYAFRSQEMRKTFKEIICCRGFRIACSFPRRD
# Procedure: as §1, §2
# [7] = tested on: panel of known central and peripheral receptors and neurotransmitters, ion channels and enzymes systems; assay: Receptor specificity screening panel; format: binding; settings: 10 μM concentration
# Procedure: The peptide NH2—(CH2)6CO-Ser(Bzl)-D-Phe(4-Cl)-Arg was tested at 10 μM concentration for binding to a panel of known central and peripheral receptors and neurotransmitters, including steroid receptors, neurotransmitter receptors, brain/gut peptide receptors, growth factor/hormone receptors and other receptors, and for interaction with a panel of known ion channels and enzymes systems.
smiles,measurement,setting,value
"N=C(N)NCCC[C@H](NC(=O)[C@@H](Cc1ccc(Cl)cc1)NC(=O)[C@H](COCc1ccccc1)NC(=O)CCCCCCN)C(=O)O [NH2—(CH2)6—CO-Ser(Bzl)-D-Phe(4-Cl)-Arg, NH2—(CH2)6CO-Ser(Bzl)-D-Phe(4-Cl)-Arg] (H-[Ahp]S(Bn)[dPhe(4-Cl)]R-OH)",inhibition at 10 µM,[1],0%
same,"human dose for oral delivery, extrapolated (could be as low as)","[2]; extrapolated from rat to human, oral",1 mg
same,"efficacious dose to induce penile erection, intravenous","[2]; male Sprague Dawley rats, intravenous",lower than 0.001 μg/kg
same,oral dose at which peptide may be biologically active (as low as),"[2]; male rats, oral",250 ng/kg
same,inhibition at 10 µM,[3],0%
same,effect of SHU9119 pre-administration on induced erections,[4],resulted in erections at a rate equivalent to that obtained without pre-administration of SHU9119
same,inhibition at 10 µM,[5],0%
same,inhibition at 10 µM,[6],0%
same,binding or activity at panel members,[7],No binding or activity
